Legend:
Test in all cases: Ambit KinomeScan screening
Format in all cases: binding
Conditions in all cases: CAL-130 10 μM
ABL1 = biological target: T1, ABL1 (Homo sapiens, UniProt P00519)
T1 construct: unspecified tag ("tagged kinases"); purchased Ambit (KinomeScan screening)
Protocol: (§1) CAL-130 (10 μM) was evaluated for its ability to prevent tagged kinases from interacting with immobilized “bait” ligand (Karaman et al., 2008). Results are reported as “% of control binding”, where lower numbers indicate stronger interactions with the tagged kinase. Values of >35% are considered “no hits”. PI3Kδ had the lowest percentage of control binding at 0.2% followed by PI3Kγ at 3.2% (See Table 1 below). These values indicate a high probability of a potent interaction. 353 kinases were assessed in the screen (Table 2).

ABL1(E255K) = biological target: T2, ABL1(E255K) (Homo sapiens, UniProt P00519, E255K)
T2 construct: unspecified tag ("tagged kinases"); purchased Ambit (KinomeScan screening)
Protocol: as §1

ABL1(M351T) = biological target: T3, ABL1(M351T) (Homo sapiens, UniProt P00519, M351T)
T3 construct: unspecified tag ("tagged kinases"); purchased Ambit (KinomeScan screening)
Protocol: as §1

ADCK3 = biological target: T4, ADCK3 (Homo sapiens, UniProt Q8NI60)
T4 construct: purchased Ambit (KinomeScan screening)
Protocol: as §1

BMPR1A = biological target: T5, BMPR1A (Homo sapiens, UniProt P36894)
T5 construct: purchased Ambit (KinomeScan screening service)
Protocol: as §1

BMX = biological target: T6, BMX (Homo sapiens, UniProt P51813)
T6 construct: unspecified tag ("tagged kinases"); purchased Ambit (KinomeScan screening)
Protocol: as §1

BRSK1 = biological target: T7, BRSK1 (Homo sapiens, UniProt Q8TDC3)
T7 construct: unspecified tag ("tagged kinases"); purchased Ambit (KinomeScan screening)
Protocol: as §1

BRSK2 = biological target: T8, BRSK2 (Homo sapiens, UniProt Q8IWQ3)
T8 construct: unspecified tag ("tagged kinases"); purchased Ambit (KinomeScan screening)
Protocol: as §1

CDKL5 = biological target: T9, CDKL5 (Homo sapiens, UniProt O76039)
T9 construct: purchased Ambit (KinomeScan screening service)
Protocol: as §1

EGFR(G719C) = biological target: T10, EGFR(G719C) (Homo sapiens, UniProt P00533, G719C)
T10 construct: unspecified tag; purchased Ambit (KinomeScan screening service)
Protocol: as §1

EPHA8 = biological target: T11, EPHA8 (Homo sapiens, UniProt P29322)
T11 construct: purchased Ambit (KinomeScan screening service)
Protocol: as §1

ERK4 = biological target: T12, ERK4 (Homo sapiens, UniProt P31152)
T12 construct: unspecified tag ("tagged kinases"); purchased Ambit (KinomeScan screening service)
Protocol: as §1

FLT3(ITD) = system: FLT3(ITD)
Protocol: as §1

GRK7 = biological target: T13, GRK7 (Homo sapiens, UniProt Q8WTQ7)
T13 construct: unspecified tag ('tagged kinases'); purchased Ambit (KinomeScan screening service)
Protocol: as §1

GSK3A = biological target: T14, GSK3A (Homo sapiens, UniProt P49840)
T14 construct: unspecified tag ('tagged kinases'); purchased Ambit (KinomeScan screening service)
Protocol: as §1

GSK3B = biological target: T15, GSK3B (Homo sapiens, UniProt P49841)
T15 construct: unspecified tag ('tagged kinases'); purchased Ambit (KinomeScan screening service)
Protocol: as §1

IRAK3 = biological target: T16, IRAK3 (Homo sapiens, UniProt Q9Y616)
T16 construct: purchased Ambit (KinomeScan screening)
Protocol: as §1

LCK = biological target: T17, LCK (Homo sapiens, UniProt P06239)
T17 construct: unspecified tag ('tagged kinases'); purchased Ambit (KinomeScan screening service)
Protocol: as §1

MAP3K3 = biological target: T18, MAP3K3 (Homo sapiens, UniProt Q99759)
T18 construct: Ambit (KinomeScan screening)
Protocol: as §1

MAP4K4 = biological target: T19, MAP4K4 (Homo sapiens, UniProt O95819)
T19 construct: Ambit (KinomeScan screening)
Protocol: as §1

MAPKAPK2 = biological target: T20, MAPKAPK2 (Homo sapiens, UniProt P49137)
T20 construct: Ambit (KinomeScan screening)
Protocol: as §1

MARK3 = biological target: T21, MARK3 (Homo sapiens, UniProt P27448)
T21 construct: purchased Ambit (KinomeScan screening)
Protocol: as §1

MAST1 = biological target: T22, MAST1 (Homo sapiens, UniProt Q9Y2H9)
T22 construct: purchased Ambit (KinomeScan screening)
Protocol: as §1

MET(M1250T) = biological target: T23, MET(M1250T) (Homo sapiens, UniProt P08581, M1250T)
T23 construct: purchased Ambit (KinomeScan screening)
Protocol: as §1

NEK6 = biological target: T24, NEK6 (Homo sapiens, UniProt Q9HC98)
T24 construct: unspecified tag; purchased Ambit (KinomeScan screening panel)
Protocol: as §1

PAK5 = system: PAK5
Protocol: as §1

PKAC-α = biological target: T25, PKAC-α (Homo sapiens, UniProt P17612)
T25 construct: unspecified tag; purchased Ambit (KinomeScan screening panel)
Protocol: as §1

PLK1 = biological target: T26, PLK1 (Homo sapiens, UniProt P53350)
T26 construct: purchased Ambit (KinomeScan screening service)
Protocol: as §1

PRKCQ = biological target: T27, PRKCQ (Homo sapiens, UniProt Q04759)
T27 construct: purchased Ambit (KinomeScan screening service)
Protocol: as §1

RET = biological target: T28, RET (Homo sapiens, UniProt P07949)
T28 construct: tag (kind not specified); purchased Ambit (KinomeScan screening service)
Protocol: as §1

RPS6KA6 = biological target: T29, RPS6KA6 (Homo sapiens, UniProt Q9UK32)
T29 construct: tag, kind not specified; purchased Ambit (KinomeScan screening service)
Protocol: as §1

SBK1 = biological target: T30, SBK1 (Homo sapiens, UniProt Q52WX2)
T30 construct: tag, kind not specified; purchased Ambit (KinomeScan screening service)
Protocol: as §1

SRMS = biological target: T31, SRMS (Homo sapiens, UniProt Q9H3Y6)
T31 construct: tag, kind not specified; purchased Ambit (KinomeScan screening service)
Protocol: as §1

TAOK1 = biological target: T32, TAOK1 (Homo sapiens, UniProt Q7L7X3)
T32 construct: tag (kind not specified); purchased Ambit (KinomeScan screening service)
Protocol: as §1

TBK1 = biological target: T33, TBK1 (Homo sapiens, UniProt Q9UHD2)
T33 construct: tag (kind not specified); purchased Ambit (KinomeScan screening service)
Protocol: as §1

TYK2(JH1domain) = biological target: T34, TYK2(JH1domain) (Homo sapiens, UniProt P29597)
T34 construct: TYK2(JH1domain); tag, kind not specified; purchased Ambit (KinomeScan screening service)
Protocol: as §1

YANK3 = biological target: T35, YANK3 (Homo sapiens, UniProt Q86UX6)
T35 construct: purchased Ambit (KinomeScan screening service)
Protocol: as §1

Measured: Percent of Control Binding

T27 sequence (Q04759 whole entry): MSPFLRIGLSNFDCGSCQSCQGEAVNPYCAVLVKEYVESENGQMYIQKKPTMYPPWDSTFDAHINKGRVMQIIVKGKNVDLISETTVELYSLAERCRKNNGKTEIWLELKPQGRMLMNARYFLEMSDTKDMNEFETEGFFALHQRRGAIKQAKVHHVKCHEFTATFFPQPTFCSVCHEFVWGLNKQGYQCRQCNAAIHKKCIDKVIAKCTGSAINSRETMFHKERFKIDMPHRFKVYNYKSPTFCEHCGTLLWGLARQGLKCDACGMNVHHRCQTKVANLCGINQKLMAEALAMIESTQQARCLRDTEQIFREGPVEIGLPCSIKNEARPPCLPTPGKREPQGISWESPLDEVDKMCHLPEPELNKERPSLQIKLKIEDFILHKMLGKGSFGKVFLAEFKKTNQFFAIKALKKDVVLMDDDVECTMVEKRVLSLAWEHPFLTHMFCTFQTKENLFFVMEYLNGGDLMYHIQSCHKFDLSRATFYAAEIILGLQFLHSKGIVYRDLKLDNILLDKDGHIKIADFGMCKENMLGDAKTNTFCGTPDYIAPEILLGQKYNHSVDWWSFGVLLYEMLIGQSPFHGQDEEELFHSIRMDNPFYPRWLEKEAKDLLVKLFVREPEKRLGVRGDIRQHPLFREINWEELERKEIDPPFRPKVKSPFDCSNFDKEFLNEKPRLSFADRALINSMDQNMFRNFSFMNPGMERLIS
T12 sequence (P31152 whole entry): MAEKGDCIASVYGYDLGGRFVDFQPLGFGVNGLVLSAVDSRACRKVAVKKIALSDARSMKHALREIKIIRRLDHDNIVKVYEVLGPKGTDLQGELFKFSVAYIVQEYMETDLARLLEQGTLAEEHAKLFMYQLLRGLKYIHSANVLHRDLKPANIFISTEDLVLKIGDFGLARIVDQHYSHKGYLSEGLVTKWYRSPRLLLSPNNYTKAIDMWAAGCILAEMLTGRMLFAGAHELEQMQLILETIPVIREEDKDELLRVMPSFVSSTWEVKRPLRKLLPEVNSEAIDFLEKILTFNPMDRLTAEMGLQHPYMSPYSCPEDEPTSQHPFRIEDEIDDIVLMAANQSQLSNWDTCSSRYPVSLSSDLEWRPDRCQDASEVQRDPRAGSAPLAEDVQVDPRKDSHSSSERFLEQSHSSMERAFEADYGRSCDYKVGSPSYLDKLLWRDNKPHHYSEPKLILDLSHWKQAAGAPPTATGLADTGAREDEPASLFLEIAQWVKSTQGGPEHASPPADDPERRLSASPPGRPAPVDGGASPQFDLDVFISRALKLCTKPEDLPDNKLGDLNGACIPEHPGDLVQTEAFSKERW
T22 sequence (Q9Y2H9 whole entry): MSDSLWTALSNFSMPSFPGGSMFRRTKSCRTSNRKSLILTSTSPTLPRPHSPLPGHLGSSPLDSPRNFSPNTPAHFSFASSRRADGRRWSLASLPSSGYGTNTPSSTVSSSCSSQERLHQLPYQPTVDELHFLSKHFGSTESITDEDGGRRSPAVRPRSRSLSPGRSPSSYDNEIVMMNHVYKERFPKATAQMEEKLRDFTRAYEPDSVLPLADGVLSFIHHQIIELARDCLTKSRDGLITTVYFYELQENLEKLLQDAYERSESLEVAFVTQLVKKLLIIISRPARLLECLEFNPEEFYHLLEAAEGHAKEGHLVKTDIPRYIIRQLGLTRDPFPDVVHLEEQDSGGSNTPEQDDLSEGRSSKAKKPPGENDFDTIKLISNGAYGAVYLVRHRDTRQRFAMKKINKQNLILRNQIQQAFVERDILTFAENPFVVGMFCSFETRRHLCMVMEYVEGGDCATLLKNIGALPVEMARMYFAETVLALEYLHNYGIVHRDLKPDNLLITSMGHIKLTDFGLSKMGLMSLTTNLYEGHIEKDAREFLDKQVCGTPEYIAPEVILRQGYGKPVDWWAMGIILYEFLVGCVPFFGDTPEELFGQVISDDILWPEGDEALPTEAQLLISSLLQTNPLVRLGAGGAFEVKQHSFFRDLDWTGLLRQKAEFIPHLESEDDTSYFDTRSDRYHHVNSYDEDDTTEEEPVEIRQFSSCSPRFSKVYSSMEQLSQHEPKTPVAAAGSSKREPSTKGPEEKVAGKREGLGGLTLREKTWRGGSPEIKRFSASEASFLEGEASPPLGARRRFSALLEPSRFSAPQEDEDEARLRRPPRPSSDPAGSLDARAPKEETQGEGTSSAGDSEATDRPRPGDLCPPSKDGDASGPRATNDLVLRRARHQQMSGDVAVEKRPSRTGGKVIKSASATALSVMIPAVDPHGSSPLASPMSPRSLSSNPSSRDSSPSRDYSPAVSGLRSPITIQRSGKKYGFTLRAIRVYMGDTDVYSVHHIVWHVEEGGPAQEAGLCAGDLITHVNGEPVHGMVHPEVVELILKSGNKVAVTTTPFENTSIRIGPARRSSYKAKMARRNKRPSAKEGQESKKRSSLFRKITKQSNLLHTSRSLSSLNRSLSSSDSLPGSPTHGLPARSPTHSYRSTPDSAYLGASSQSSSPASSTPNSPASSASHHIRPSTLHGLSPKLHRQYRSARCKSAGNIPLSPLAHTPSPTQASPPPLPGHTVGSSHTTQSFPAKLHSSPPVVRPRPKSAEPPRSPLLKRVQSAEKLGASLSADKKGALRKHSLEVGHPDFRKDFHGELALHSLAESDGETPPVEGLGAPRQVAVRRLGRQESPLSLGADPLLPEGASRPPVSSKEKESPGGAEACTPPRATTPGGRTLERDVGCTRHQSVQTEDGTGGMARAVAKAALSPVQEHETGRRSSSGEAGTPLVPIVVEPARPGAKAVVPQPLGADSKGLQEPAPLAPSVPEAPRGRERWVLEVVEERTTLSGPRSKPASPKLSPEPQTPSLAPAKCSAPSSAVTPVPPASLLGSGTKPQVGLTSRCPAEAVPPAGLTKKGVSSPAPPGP
T28 sequence (P07949 29-1114): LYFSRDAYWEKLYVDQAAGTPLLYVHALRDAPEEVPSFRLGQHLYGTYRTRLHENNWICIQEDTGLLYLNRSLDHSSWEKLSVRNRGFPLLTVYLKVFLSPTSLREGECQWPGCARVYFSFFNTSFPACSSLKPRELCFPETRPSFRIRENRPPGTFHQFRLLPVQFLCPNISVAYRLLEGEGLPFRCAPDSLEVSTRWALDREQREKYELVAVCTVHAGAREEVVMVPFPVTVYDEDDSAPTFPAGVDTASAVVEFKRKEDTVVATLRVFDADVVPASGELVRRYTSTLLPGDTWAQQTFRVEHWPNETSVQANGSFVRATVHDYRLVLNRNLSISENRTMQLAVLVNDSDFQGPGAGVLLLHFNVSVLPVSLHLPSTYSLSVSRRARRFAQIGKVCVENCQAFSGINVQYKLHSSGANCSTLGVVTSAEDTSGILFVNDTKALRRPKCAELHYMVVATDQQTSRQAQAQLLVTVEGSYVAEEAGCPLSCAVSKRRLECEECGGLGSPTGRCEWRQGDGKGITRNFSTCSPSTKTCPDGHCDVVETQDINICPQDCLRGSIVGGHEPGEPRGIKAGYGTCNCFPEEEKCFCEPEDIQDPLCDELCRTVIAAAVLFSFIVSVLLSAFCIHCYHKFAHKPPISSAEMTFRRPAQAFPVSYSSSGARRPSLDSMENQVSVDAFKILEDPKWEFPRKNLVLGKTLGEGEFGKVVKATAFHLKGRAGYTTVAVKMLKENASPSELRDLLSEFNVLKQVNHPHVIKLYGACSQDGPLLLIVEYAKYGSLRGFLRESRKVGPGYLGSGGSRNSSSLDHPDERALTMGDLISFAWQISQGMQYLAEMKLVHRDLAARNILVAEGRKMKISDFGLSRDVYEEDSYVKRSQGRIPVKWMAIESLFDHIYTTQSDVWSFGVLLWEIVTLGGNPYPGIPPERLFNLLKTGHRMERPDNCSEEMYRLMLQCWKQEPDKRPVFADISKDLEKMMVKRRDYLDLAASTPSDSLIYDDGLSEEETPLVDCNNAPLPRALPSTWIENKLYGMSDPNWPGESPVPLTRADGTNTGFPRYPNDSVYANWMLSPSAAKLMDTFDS
T9 sequence (O76039 whole entry): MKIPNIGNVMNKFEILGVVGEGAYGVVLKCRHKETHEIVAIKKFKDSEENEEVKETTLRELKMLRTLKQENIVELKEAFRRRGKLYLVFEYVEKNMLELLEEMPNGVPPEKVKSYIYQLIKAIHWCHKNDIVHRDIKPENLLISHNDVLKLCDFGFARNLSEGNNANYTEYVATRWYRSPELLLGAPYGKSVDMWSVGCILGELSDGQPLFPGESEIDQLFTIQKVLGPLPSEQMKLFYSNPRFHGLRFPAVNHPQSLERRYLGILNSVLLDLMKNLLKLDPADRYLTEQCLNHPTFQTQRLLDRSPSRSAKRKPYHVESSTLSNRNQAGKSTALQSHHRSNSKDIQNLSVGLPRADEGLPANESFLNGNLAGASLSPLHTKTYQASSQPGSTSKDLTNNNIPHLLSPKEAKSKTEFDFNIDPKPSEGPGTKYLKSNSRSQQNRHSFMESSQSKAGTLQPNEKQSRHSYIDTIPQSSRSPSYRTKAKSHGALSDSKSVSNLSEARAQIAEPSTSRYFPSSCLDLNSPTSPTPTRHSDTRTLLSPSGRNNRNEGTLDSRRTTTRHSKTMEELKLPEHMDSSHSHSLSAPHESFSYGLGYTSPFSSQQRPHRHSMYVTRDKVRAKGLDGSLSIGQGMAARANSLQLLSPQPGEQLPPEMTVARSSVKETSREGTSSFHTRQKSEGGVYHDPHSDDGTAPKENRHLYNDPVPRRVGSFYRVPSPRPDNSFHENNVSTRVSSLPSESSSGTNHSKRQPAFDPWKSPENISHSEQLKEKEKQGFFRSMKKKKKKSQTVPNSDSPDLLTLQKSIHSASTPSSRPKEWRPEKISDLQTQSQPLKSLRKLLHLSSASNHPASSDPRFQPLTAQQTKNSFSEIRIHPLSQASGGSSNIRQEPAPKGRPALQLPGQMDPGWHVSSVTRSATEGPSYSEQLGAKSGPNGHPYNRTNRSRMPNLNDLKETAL

Cc1ccccc1-n1c(C(C)Nc2nc(N)nc3nc[nH]c23)nc2cccc(C)c2c1=O (stereo not shown) [CAL-130]
100%: ABL1 | ABL1(E255K) | ABL1(M351T) | ADCK3 | BMPR1A | BMX | BRSK1 | BRSK2 | CDKL5 | EGFR(G719C) | EPHA8 | ERK4 | FLT3(ITD) | GRK7 | GSK3A | GSK3B | IRAK3 | LCK | MAP3K3 | MAP4K4 | MAPKAPK2 | MARK3 | MAST1 | MET(M1250T) | NEK6 | PAK5 | PKAC-α | PLK1 | PRKCQ | RET | RPS6KA6 | SBK1 | SRMS | TAOK1 | TBK1 | TYK2(JH1domain) | YANK3

— US11969428B2, “Methods and pharmaceutical compositions for treating lymphoid malignancy” (priority 2011, dated 2024)
